According to ChEMBL document CHEMBL3885881, “DrugMatrix”:

Legend:
Rattus norvegicus [1] = organism: Rattus norvegicus; test: DrugMatrix - Regimen: Daily Repeat; format: toxicity, organism-based, Sprague-Dawley; parameters: regimen Daily Repeat, gender Male, age 6-8 weeks; settings: in vivo, po, 75 mg/kg, route oral GAVAGE, dose level High, vehicle .5 % CMC
Rattus norvegicus [2] = organism: Rattus norvegicus; format: toxicity, organism-based, Sprague-Dawley; settings: in vivo, po, 75 mg/kg, 24 h, route oral GAVAGE, dose level High, time 1 day, vehicle .5 % CMC
Description: DrugMatrix - Regimen: Single

[3] = […], tissue Plasma, time 14 day

Nc1ccc(Cl)cc1 [4-CHLOROANILINE]
URIC ACID (Rattus norvegicus [1]; 120 h, tissue Plasma, time 5 day): 1.87 mg/dL | ABSOLUTE BASOPHIL (Rattus norvegicus [1]; […], tissue Blood, time 14 day): 0 CELLS/uL | ABSOLUTE EOSINOPHIL (Rattus norvegicus [1]; […], tissue Blood, time 14 day): 83.2 CELLS/uL | ABSOLUTE LYMPHOCYTE (Rattus norvegicus [1]; […], tissue Blood, time 14 day): 19196.8 CELLS/uL | ABSOLUTE MONOCYTE (Rattus norvegicus [1]; […], tissue Blood, time 14 day): 524.8 CELLS/uL | ABSOLUTE SEGMENTED NEUTROPHIL (Rattus norvegicus [1]; […], tissue Blood, time 14 day): 2275.2 CELLS/uL | BASOPHIL (Rattus norvegicus [1]; […], tissue Blood, time 14 day): 0% | EOSINOPHIL (Rattus norvegicus [1]; […], tissue Blood, time 14 day): 0.4% | ERYTHROCYTE COUNT (Rattus norvegicus [1]; […], tissue Blood, time 14 day): 3.73 x10E6/uL | HEMATOCRIT (Rattus norvegicus [1]; […], tissue Blood, time 14 day): 34.9% | HEMOGLOBIN (Rattus norvegicus [1]; […], tissue Blood, time 14 day): 13.26 G/DL | LEUKOCYTE COUNT (Rattus norvegicus [1]; […], tissue Blood, time 14 day): 22.08 x10E3/uL | LYMPHOCYTE (Rattus norvegicus [1]; […], tissue Blood, time 14 day): 86.8% | MEAN CORPUSCULAR HEMOGLOBIN (Rattus norvegicus [1]; […], tissue Blood, time 14 day): 35.82 pg | MEAN CORPUSCULAR HEMOGLOBIN CONCENTRATION (Rattus norvegicus [1]; […], tissue Blood, time 14 day): 38.02 G/DL | MEAN CORPUSCULAR VOLUME (Rattus norvegicus [1]; […], tissue Blood, time 14 day): 94.18 fL | MONOCYTE (Rattus norvegicus [1]; […], tissue Blood, time 14 day): 2.4% | NEUTROPHIL (Rattus norvegicus [1]; […], tissue Blood, time 14 day): 10.4% | NUCLEATED RED BLOOD CELLS (Rattus norvegicus [1]; […], tissue Blood, time 14 day): 1 /100WBC | PLATELET COUNT (Rattus norvegicus [1]; […], tissue Blood, time 14 day): 846.6 x10E3/uL | ALANINE AMINOTRANSFERASE (Rattus norvegicus [1]; [3]): 56.6 u/L | ALBUMIN (Rattus norvegicus [1]; [3]): 4.38 G/DL | ALKALINE PHOSPHATASE (Rattus norvegicus [1]; [3]): 320.6 u/L | ASPARTATE AMINOTRANSFERASE (Rattus norvegicus [1]; [3]): 128 u/L | BLOOD UREA NITROGEN (Rattus norvegicus [1]; [3]): 15.4 mg/dL | CARBON DIOXIDE (Rattus norvegicus [1]; [3]): 29.8 mmol/L | CHLORIDE (Rattus norvegicus [1]; [3]): 103.2 MEQ/L | CHOLESTEROL (Rattus norvegicus [1]; [3]): 57 mg/dL | CREATININE (Rattus norvegicus [1]; [3]): 0.22 mg/dL | GLUCOSE (Rattus norvegicus [1]; [3]): 123.8 mg/dL | LACTATE DEHYDROGENASE (Rattus norvegicus [1]; [3]): 440.6 u/L | LIPASE (Rattus norvegicus [1]; [3]): 9.6 u/L | PHOSPHORUS (Rattus norvegicus [1]; [3]): 10.5 mg/dL | POTASSIUM (Rattus norvegicus [1]; [3]): 6.12 MEQ/L | SODIUM (Rattus norvegicus [1]; [3]): 148.96 MEQ/L | TOTAL BILIRUBIN (Rattus norvegicus [1]; [3]): 0.54 mg/dL | TOTAL PROTEIN (Rattus norvegicus [1]; [3]): 6.16 G/DL | URIC ACID (Rattus norvegicus [1]; [3]): 1.72 mg/dL | ABSOLUTE EOSINOPHIL (Rattus norvegicus [2]; tissue Blood): 269 CELLS/uL | ABSOLUTE LYMPHOCYTE (Rattus norvegicus [2]; tissue Blood): 17566.67 CELLS/uL | ABSOLUTE MONOCYTE (Rattus norvegicus [2]; tissue Blood): 600.33 CELLS/uL | ABSOLUTE SEGMENTED NEUTROPHIL (Rattus norvegicus [2]; tissue Blood): 3397.33 CELLS/uL | BASOPHIL (Rattus norvegicus [2]; tissue Blood): 0% | EOSINOPHIL (Rattus norvegicus [2]; tissue Blood): 1.33% | ERYTHROCYTE COUNT (Rattus norvegicus [2]; tissue Blood): 5.88 x10E6/uL | HEMATOCRIT (Rattus norvegicus [2]; tissue Blood): 36.53% | HEMOGLOBIN (Rattus norvegicus [2]; tissue Blood): 13.03 G/DL | LEUKOCYTE COUNT (Rattus norvegicus [2]; tissue Blood): 21.83 x10E3/uL | LYMPHOCYTE (Rattus norvegicus [2]; tissue Blood): 81.67% | MEAN CORPUSCULAR HEMOGLOBIN (Rattus norvegicus [2]; tissue Blood): 22.17 pg | MEAN CORPUSCULAR HEMOGLOBIN CONCENTRATION (Rattus norvegicus [2]; tissue Blood): 35.7 G/DL | MEAN CORPUSCULAR VOLUME (Rattus norvegicus [2]; tissue Blood): 62.13 fL | MONOCYTE (Rattus norvegicus [2]; tissue Blood): 2.67% | NEUTROPHIL (Rattus norvegicus [2]; tissue Blood): 14.33% | NUCLEATED RED BLOOD CELLS (Rattus norvegicus [2]; tissue Blood): 0 /100WBC | PLATELET COUNT (Rattus norvegicus [2]; tissue Blood): 950.67 x10E3/uL | ALANINE AMINOTRANSFERASE (Rattus norvegicus [2]; tissue Plasma): 53 u/L | ALBUMIN (Rattus norvegicus [2]; tissue Plasma): 4.37 G/DL | ALKALINE PHOSPHATASE (Rattus norvegicus [2]; tissue Plasma): 533.33 u/L | ASPARTATE AMINOTRANSFERASE (Rattus norvegicus [2]; tissue Plasma): 101 u/L | BLOOD UREA NITROGEN (Rattus norvegicus [2]; tissue Plasma): 13.67 mg/dL | CARBON DIOXIDE (Rattus norvegicus [2]; tissue Plasma): 25.67 mmol/L | CHLORIDE (Rattus norvegicus [2]; tissue Plasma): 102.33 MEQ/L | CHOLESTEROL (Rattus norvegicus [2]; tissue Plasma): 75.33 mg/dL | CREATININE (Rattus norvegicus [2]; tissue Plasma): 0.19 mg/dL | GLUCOSE (Rattus norvegicus [2]; tissue Plasma): 168 mg/dL | LACTATE DEHYDROGENASE (Rattus norvegicus [2]; tissue Plasma): 480 u/L | LIPASE (Rattus norvegicus [2]; tissue Plasma): 9.67 u/L | PHOSPHORUS (Rattus norvegicus [2]; tissue Plasma): 13.93 mg/dL | POTASSIUM (Rattus norvegicus [2]; tissue Plasma): 6.69 MEQ/L | SODIUM (Rattus norvegicus [2]; tissue Plasma): 146.3 MEQ/L | TOTAL BILIRUBIN (Rattus norvegicus [2]; tissue Plasma): 0.23 mg/dL | TOTAL PROTEIN (Rattus norvegicus [2]; tissue Plasma): 6.3 G/DL | URIC ACID (Rattus norvegicus [2]; tissue Plasma): 2.2 mg/dL
